Earlier results as cited in PMC5742115, “Pharmacophore Modeling and in Silico/in Vitro Screening for Human Cytochrome P450 11B1 and Cytochrome P450 11B2 Inhibitors” (Frontiers in Chemistry, 2017).
Where two headings read alike, the source gives them in different places.

Key:
[1] = tested on: CYP11B1; settings: reported activity, supplementary Table 1, read-out: CYP11B1 IC50, cited from earlier work
[2] = tested on: CYP11B2; settings: reported activity, supplementary Table 1, read-out: CYP11B2 IC50, cited from earlier work

Row | Compound | IC50 ([1]; ref Roumen et al., 2010) | IC50 ([2]; ref Roumen et al., 2010) | also measured
1 | COc1ccc2c(c1)CC(C)C(c1cccnc1)=C2 (stereo not drawn) [CHEMBL502266] |  |  | IC50 ([1]; ref Heim et al., 2008): 248 nM; IC50 ([2]; ref Heim et al., 2008): 3.3 nM
2 | COc1cncc(-c2cc3ccc(OC)cc3cc2C)c1 [CHEMBL502818] |  |  | IC50 ([1]; ref Heim et al., 2008): 875 nM; IC50 ([2]; ref Heim et al., 2008): 3.8 nM
3 | COc1ccc2cc(-c3cncc(C(C)=O)c3)ccc2c1 [CHEMBL502824] |  |  | IC50 ([1]; ref Heim et al., 2008): 255 nM; IC50 ([2]; ref Heim et al., 2008): 2.1 nM
4 | S=C1CCc2cc(-c3cccnc3)cc(Cl)c2N1 [CHEMBL508155] |  |  | IC50 ([1]; ref Lucas et al., 2008b): 769 nM; IC50 ([2]; ref Lucas et al., 2008b): 4.2 nM
5 | O=C1CSc2cc(-c3cccnc3)ccc2N1 [CHEMBL509971] |  |  | IC50 ([1]; ref Lucas et al., 2008b): 525 nM; IC50 ([2]; ref Lucas et al., 2008b): 12 nM
6 | S=C1CCc2cc(-c3cccnc3)ccc2N1 [CHEMBL511329] |  |  | IC50 ([1]; ref Lucas et al., 2008b): 580 nM; IC50 ([2]; ref Lucas et al., 2008b): 3.1 nM
7 | COc1ccc2cc(-c3cncc4ccccc34)c(C)cc2c1 [CHEMBL525785] |  |  | IC50 ([1]; ref Heim et al., 2008): 843 nM; IC50 ([2]; ref Heim et al., 2008): 3.1 nM
8 | COC(=O)Cc1cncc(-c2ccc3cc(OC)ccc3c2)c1 [CHEMBL526339] |  |  | IC50 ([1]; ref Heim et al., 2008): 199 nM; IC50 ([2]; ref Heim et al., 2008): 6.9 nM
9 | COC(=O)CCc1cncn1Cc1ccc(C#N)cc1 [CHEMBL591229] | 31 nM | 3.5 nM | 
10 | OCCCc1cncn1Cc1ccc(F)cc1 [CHEMBL591465] | 116 nM | 16 nM | 
11 | COc1ccc(Cn2cncc2-c2ccccc2)cc1 [CHEMBL591697] | 11 nM | 14 nM | 
12 | COC(=O)c1cncn1Cc1ccc(C#N)cc1 [CHEMBL591698] | 48 nM | 7 nM | 
13 | COC(=O)CCc1cncn1Cc1ccc(Br)cc1 [CHEMBL592614] | 57 nM | 4 nM | 
14 | Clc1ccc(Cn2cncc2-c2ccccc2)cc1 [CHEMBL597101] | 25 nM | 5.8 nM | 
15 | Brc1ccc(Cn2cncc2-c2ccccc2)cc1 [CHEMBL597173] | 7 nM | 5.1 nM | 
16 | N#Cc1ccc(Cn2cncc2-c2ccccc2)cc1 [CHEMBL597578] | 28 nM | 1.7 nM | 
17 | N#Cc1ccc(Cn2cncc2CCCO)cc1 [CHEMBL598399] | 48 nM | 13 nM | 
18 | OCCCc1cncn1Cc1ccc(Cl)cc1 [CHEMBL598606] | 44 nM | 55 nM | 
19 | N#Cc1ccc(Cn2cncc2-c2cccc(F)c2)cc1 [CHEMBL598789] | 32 nM | 5.5 nM | 
20 | N#Cc1ccc(Cn2cncc2-c2ccc(F)cc2)cc1 [CHEMBL598790] | 27 nM | 25 nM | 

Row | Compound | IC50 ([1]; ref Roumen et al., 2010) | IC50 ([2]; ref Roumen et al., 2010) | also measured
21 | OCCCc1cncn1Cc1ccc(Br)cc1 [CHEMBL598810] | 18 nM | 6.2 nM | 
22 | COC(=O)OCc1cncn1Cc1ccc(C#N)cc1 [CHEMBL599222] | 213 nM | 44 nM | 
23 | N#Cc1ccc(Cn2cncc2Br)cc1 [CHEMBL599223] | 73 nM | 23 nM | 
24 | N#Cc1ccc(Cn2cncc2CO)cc1 [CHEMBL599601] | 285 nM | 29 nM | 
25 | N#Cc1ccc(Cn2cncc2-c2ccccc2F)cc1 [CHEMBL599603] | 20 nM | 2.3 nM | 
26 | COC(=O)CCc1cncn1Cc1ccc(F)cc1 [CHEMBL599622] | 104 nM | 50 nM | 
27 | Cc1cccc(-c2cncn2Cc2ccc(C#N)cc2)c1 [CHEMBL607862] | 6.2 nM | 5.2 nM | 
28 | Fc1ccc(Cn2cncc2-c2ccccc2)cc1 [CHEMBL610501] | 16 nM | 11 nM | 
29 | Cc1ccccc1-c1cncn1Cc1ccc(C#N)cc1 [CHEMBL610513] | 5.7 nM | 3.7 nM | 
30 | N#Cc1ccc(Cn2cncc2C=O)cc1 [CHEMBL611680] | 478 nM | 62 nM | 
31 | O=c1c2ccccc2oc2cccc(Cn3ccnc3)c12 [CHEMBL1083652] |  |  | IC50 ([1]; ref Gobbi et al., 2013): 99.1 nM; IC50 ([2]; ref Gobbi et al., 2013): 114 nM
32 | c1ccc(-c2ccc(Cn3ccnc3)cc2)cc1 [CHEMBL1235146] |  |  | IC50 ([1]; ref Hille et al., 2011b): 32 nM; IC50 ([2]; ref Hille et al., 2011b): 637 nM
33 | Cc1cc(C)c(Cn2ccnc2)c(C)c1 [CHEMBL1649605] |  |  | IC50 ([1]; ref Hille et al., 2011b): 24 nM; IC50 ([2]; ref Hille et al., 2011b): 30 nM
34 | Cc1ccccc1Cn1ccnc1 [CHEMBL1651492] |  |  | IC50 ([1]; ref Hille et al., 2011b): 61 nM; IC50 ([2]; ref Hille et al., 2011b): 62 nM
35 | Cc1cccc(Cn2ccnc2)c1 [CHEMBL1651493] |  |  | IC50 ([1]; ref Hille et al., 2011b): 48 nM; IC50 ([2]; ref Hille et al., 2011b): 110 nM
36 | Cc1cc(C)cc(Cn2ccnc2)c1 [CHEMBL1651494] |  |  | IC50 ([1]; ref Hille et al., 2011b): 32 nM; IC50 ([2]; ref Hille et al., 2011b): 77 nM
37 | Cc1c(C)c(C)c(Cn2ccnc2)c(C)c1C [CHEMBL1651495] |  |  | IC50 ([1]; ref Hille et al., 2011b): 5 nM; IC50 ([2]; ref Hille et al., 2011b): 23 nM
38 | c1ccc(-c2ccccc2Cn2ccnc2)cc1 [CHEMBL1651496] |  |  | IC50 ([1]; ref Hille et al., 2011b): 15 nM; IC50 ([2]; ref Hille et al., 2011b): 39 nM
39 | c1ccc(-c2cccc(Cn3ccnc3)c2)cc1 [CHEMBL1651497] |  |  | IC50 ([1]; ref Hille et al., 2011b): 46 nM; IC50 ([2]; ref Hille et al., 2011b): 265 nM
